Measurements reported in the NIST ThermoML archive (doi:10.1016/j.jct.2005.10.006).
Several values for one entry are separate records, joined by “and”; a condition that tells them apart may be missing. Equal entries are not always repeated.

Test: xn = mol fraction of the nth substance listed
Conditions: Fluid (supercritical or subcritical phases), Spherical resonator

N#N [nitrogen] + C
Conditions | speed of sound
170 K, 124.7 kPa, x1 = 0.5422 | 291.53 m/s
170 K, 150 kPa, x1 = 0.5422 | 291.29 m/s
170 K, 174.8 kPa, x1 = 0.5422 | 291.06 m/s
170 K, 199.8 kPa, x1 = 0.5422 | 290.83 m/s
170 K, 224.8 kPa, x1 = 0.5422 | 290.59 m/s
170 K, 249.8 kPa, x1 = 0.5422 | 290.36 m/s
170 K, 279.7 kPa, x1 = 0.5422 | 290.07 m/s
170 K, 280 kPa, x1 = 0.5422 | 290.07 m/s
170 K, 409.7 kPa, x1 = 0.5422 | 288.85 m/s
170 K, 409.8 kPa, x1 = 0.5422 | 288.85 m/s
170 K, 680.3 kPa, x1 = 0.5422 | 286.28 m/s
170 K, 680.4 kPa, x1 = 0.5422 | 286.28 m/s
170 K, 1293 kPa, x1 = 0.5422 | 280.36 m/s
170 K, 2374 kPa, x1 = 0.5422 | 269.67 m/s and 269.68 m/s
170 K, 3248 kPa, x1 = 0.5422 | 261.01 m/s
170 K, 3249 kPa, x1 = 0.5422 | 260.99 m/s
170 K, 3953 kPa, x1 = 0.5422 | 254.33 m/s
170 K, 3954 kPa, x1 = 0.5422 | 254.32 m/s
170 K, 4555 kPa, x1 = 0.5422 | 249.39 m/s
170 K, 4572 kPa, x1 = 0.5422 | 249.51 m/s
190 K, 311.9 kPa, x1 = 0.5422 | 307.35 m/s
190 K, 457.6 kPa, x1 = 0.5422 | 306.42 m/s
190 K, 762.5 kPa, x1 = 0.5422 | 304.49 m/s
190 K, 1464 kPa, x1 = 0.5422 | 300.13 m/s
190 K, 2748 kPa, x1 = 0.5422 | 292.7 m/s
190 K, 3852 kPa, x1 = 0.5422 | 287.32 m/s
190 K, 4810 kPa, x1 = 0.5422 | 284.03 m/s
190 K, 5716 kPa, x1 = 0.5422 | 282.84 m/s
215 K, 351.4 kPa, x1 = 0.5422 | 327.5 m/s
215 K, 516.2 kPa, x1 = 0.5422 | 326.87 m/s
215 K, 863.4 kPa, x1 = 0.5422 | 325.57 m/s
215 K, 1672 kPa, x1 = 0.5422 | 322.77 m/s
215 K, 3199 kPa, x1 = 0.5422 | 318.49 m/s
215 K, 4573 kPa, x1 = 0.5422 | 316.24 m/s
215 K, 5826 kPa, x1 = 0.5422 | 316.02 m/s
215 K, 7070 kPa, x1 = 0.5422 | 317.96 m/s
220 K, 99.6 kPa, x1 = 0.2 | 363.86 m/s
220 K, 101.5 kPa, x1 = 0.2 | 363.89 m/s
220 K, 200 kPa, x1 = 0.1 | 374.49 m/s
220 K, 249.1 kPa, x1 = 0.2 | 362.81 m/s
220 K, 249.2 kPa, x1 = 0.2 | 362.81 m/s
220 K, 249.5 kPa, x1 = 0.2 | 362.85 m/s
220 K, 498.6 kPa, x1 = 0.2 | 361.06 m/s
220 K, 498.8 kPa, x1 = 0.2 | 361.05 m/s
220 K, 499.1 kPa, x1 = 0.2 | 361.09 m/s
220 K, 501.4 kPa, x1 = 0.1 | 371.96 m/s
220 K, 998.6 kPa, x1 = 0.2 | 357.56 m/s
220 K, 999.3 kPa, x1 = 0.2 | 357.56 m/s
220 K, 1001 kPa, x1 = 0.1 | 367.77 m/s
220 K, 1003 kPa, x1 = 0.2 | 357.57 m/s
220 K, 2006 kPa, x1 = 0.2 | 350.72 m/s
220 K, 2007 kPa, x1 = 0.1 | 359.38 m/s
220 K, 2008 kPa, x1 = 0.2 | 350.73 m/s
220 K, 3014 kPa, x1 = 0.2 | 344.27 m/s
220 K, 3016 kPa, x1 = 0.2 | 344.28 m/s
220 K, 3018 kPa, x1 = 0.1 | 351.21 m/s
220 K, 4002 kPa, x1 = 0.2 | 338.63 m/s
220 K, 4034 kPa, x1 = 0.2 | 338.48 m/s
220 K, 4040 kPa, x1 = 0.1 | 343.53 m/s
220 K, 5057 kPa, x1 = 0.2 | 333.84 m/s
220 K, 6079 kPa, x1 = 0.2 | 331.09 m/s
220 K, 6099 kPa, x1 = 0.1 | 332.63 m/s
220 K, 7000 kPa, x1 = 0.2 | 331.07 m/s
220 K, 7981 kPa, x1 = 0.2 | 334.7 m/s
220 K, 8215 kPa, x1 = 0.1 | 339.23 m/s
220 K, 9000 kPa, x1 = 0.2 | 343.57 m/s
220 K, 9974 kPa, x1 = 0.2 | 357.39 m/s
220 K, 10421 kPa, x1 = 0.1 | 383.6 m/s
220 K, 10996 kPa, x1 = 0.2 | 376.87 m/s
220 K, 12068 kPa, x1 = 0.2 | 401.11 m/s
220 K, 12996 kPa, x1 = 0.2 | 423.71 m/s
220 K, 14014 kPa, x1 = 0.2 | 449.03 m/s
220 K, 14274 kPa, x1 = 0.1 | 498.94 m/s
220 K, 14891 kPa, x1 = 0.2 | 470.66 m/s
220 K, 16024 kPa, x1 = 0.2 | 497.89 m/s
220 K, 16645 kPa, x1 = 0.1 | 562.65 m/s
220 K, 17031 kPa, x1 = 0.2 | 521.17 m/s
220 K, 18043 kPa, x1 = 0.1 | 596.39 m/s
220 K, 18088 kPa, x1 = 0.2 | 544.6 m/s
220 K, 19087 kPa, x1 = 0.2 | 565.86 m/s
220 K, 19556 kPa, x1 = 0.2 | 575.49 m/s
220 K, 19985 kPa, x1 = 0.1 | 639.27 m/s
220 K, 25037 kPa, x1 = 0.2 | 675.84 m/s
220 K, 30201 kPa, x1 = 0.2 | 753.84 m/s
250 K, 99.6 kPa, x1 = 0.2 | 387.32 m/s
250 K, 105 kPa, x1 = 0.2 | 387.33 m/s
250 K, 199.6 kPa, x1 = 0.1 | 398.92 m/s
250 K, 249.1 kPa, x1 = 0.2 | 386.69 m/s
250 K, 249.5 kPa, x1 = 0.2 | 386.7 m/s
250 K, 405.3 kPa, x1 = 0.5422 | 353.38 m/s
250 K, 498.3 kPa, x1 = 0.2 | 385.62 m/s
250 K, 499.1 kPa, x1 = 0.1 | 397.32 m/s
250 K, 499.1 kPa, x1 = 0.2 | 385.63 m/s
250 K, 596.4 kPa, x1 = 0.5422 | 353.08 m/s
250 K, 998.2 kPa, x1 = 0.2 | 383.53 m/s
250 K, 998.9 kPa, x1 = 0.2 | 383.54 m/s
250 K, 999.8 kPa, x1 = 0.1 | 394.71 m/s
250 K, 1001 kPa, x1 = 0.5422 | 352.48 m/s
250 K, 1955 kPa, x1 = 0.5422 | 351.35 m/s
250 K, 2002 kPa, x1 = 0.2 | 379.64 m/s
250 K, 2004 kPa, x1 = 0.1 | 389.75 m/s
250 K, 2005 kPa, x1 = 0.2 | 379.64 m/s
250 K, 2974 kPa, x1 = 0.1 | 385.4 m/s
250 K, 3002 kPa, x1 = 0.2 | 376.26 m/s
250 K, 3014 kPa, x1 = 0.2 | 376.24 m/s
250 K, 3805 kPa, x1 = 0.5422 | 350.46 m/s
250 K, 4021 kPa, x1 = 0.2 | 373.48 m/s
250 K, 4026 kPa, x1 = 0.2 | 373.48 m/s
250 K, 4027 kPa, x1 = 0.1 | 381.43 m/s
250 K, 4989 kPa, x1 = 0.2 | 371.62 m/s
250 K, 5030 kPa, x1 = 0.2 | 371.55 m/s
250 K, 5041 kPa, x1 = 0.1 | 378.44 m/s
250 K, 5536 kPa, x1 = 0.5422 | 351.48 m/s
250 K, 5903 kPa, x1 = 0.2 | 370.69 m/s
250 K, 6000 kPa, x1 = 0.2 | 370.66 m/s
250 K, 6066 kPa, x1 = 0.1 | 376.58 m/s
250 K, 7002 kPa, x1 = 0.2 | 370.93 m/s
250 K, 7089 kPa, x1 = 0.1 | 376.21 m/s
250 K, 7176 kPa, x1 = 0.5422 | 354.43 m/s
250 K, 8018 kPa, x1 = 0.2 | 372.66 m/s
250 K, 8117 kPa, x1 = 0.1 | 377.7 m/s
250 K, 8849 kPa, x1 = 0.5422 | 359.54 m/s
250 K, 8859 kPa, x1 = 0.5422 | 359.5 m/s
250 K, 9001 kPa, x1 = 0.2 | 375.95 m/s
250 K, 9155 kPa, x1 = 0.1 | 381.49 m/s
250 K, 10175 kPa, x1 = 0.2 | 382.17 m/s
250 K, 10204 kPa, x1 = 0.1 | 387.94 m/s
250 K, 11195 kPa, x1 = 0.2 | 389.7 m/s
250 K, 11238 kPa, x1 = 0.1 | 397.06 m/s
250 K, 12284 kPa, x1 = 0.1 | 408.99 m/s
250 K, 13078 kPa, x1 = 0.2 | 408.65 m/s
250 K, 13320 kPa, x1 = 0.1 | 423.21 m/s
250 K, 14003 kPa, x1 = 0.2 | 420.05 m/s
250 K, 14166 kPa, x1 = 0.1 | 436.28 m/s
250 K, 15044 kPa, x1 = 0.1 | 450.92 m/s
250 K, 15316 kPa, x1 = 0.2 | 438.11 m/s
250 K, 16059 kPa, x1 = 0.2 | 449.07 m/s
250 K, 16075 kPa, x1 = 0.1 | 469.1 m/s
250 K, 17054 kPa, x1 = 0.2 | 464.35 m/s
250 K, 17093 kPa, x1 = 0.1 | 487.71 m/s
250 K, 18084 kPa, x1 = 0.1 | 506.09 m/s
250 K, 18089 kPa, x1 = 0.2 | 480.72 m/s
250 K, 18990 kPa, x1 = 0.1 | 522.94 m/s
250 K, 19031 kPa, x1 = 0.2 | 495.86 m/s
250 K, 19850 kPa, x1 = 0.2 | 509.09 m/s
250 K, 19992 kPa, x1 = 0.1 | 541.47 m/s
250 K, 25516 kPa, x1 = 0.1 | 637.9 m/s
